Test results published in patent US9938264B2, “Proteolysis targeting chimera compounds and methods of preparing and using same” (YALE UNIVERSITY, priority 2015, dated 2018).
Read-outs that look alike come from different tables or passages of the source.

Columns and labels:
[1] = target: T1, non-phosphorylated c-ABL kinase domain (Homo sapiens, UniProt P00519); experiment: KinomeScan in vitro binding affinity (Kd), non-phosphorylated c-ABL kinase domain
T1 construct: phosphorylated and non-phosphorylated c-ABL kinase domain; purchased DiscoverRx Corporation (KinomeScan platform)
T1 sequence (P00519 242-493 limits assumed): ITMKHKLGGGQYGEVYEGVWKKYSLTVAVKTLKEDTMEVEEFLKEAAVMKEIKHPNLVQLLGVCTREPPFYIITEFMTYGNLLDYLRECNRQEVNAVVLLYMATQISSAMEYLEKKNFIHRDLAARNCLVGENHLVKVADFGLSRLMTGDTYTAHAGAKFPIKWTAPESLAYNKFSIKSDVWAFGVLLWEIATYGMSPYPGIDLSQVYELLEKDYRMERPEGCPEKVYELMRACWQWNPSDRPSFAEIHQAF
Procedure: (§1) PROTAC in vitro binding affinities (Kd) to phosphorylated and non-phosphorylated c-ABL kinase domain were determined using the KinomeScan platform (DiscoverRx Corporation). The compounds were solubilized in DMSO and sent to DiscoverRx Corporation as a 10 μM stock solution.

[2] = target: T2, phosphorylated c-ABL kinase domain (Homo sapiens, UniProt P00519); experiment: KinomeScan in vitro binding affinity (Kd), phosphorylated c-ABL kinase domain
T2 construct: phosphorylated and non-phosphorylated c-ABL kinase domain; purchased DiscoverRx Corporation (KinomeScan platform)
T2 sequence (P00519 242-493 limits assumed): T1 sequence (P00519 242-493 limits assumed)
Procedure: as §1

[3] = Table 2, read-out: ABL (non-phosphorylated)
[4] = Table 2, read-out: ABL (phosphorylated)
[5] = Table 1, ABL kinase domain, read-out: ABL (non-phosphorylated) affinity
[6] = Table 1, ABL kinase domain, read-out: ABL (phosphorylated) affinity

| Structure (SMILES) | Kd [1, 3] [nM] | Kd [2, 4] [nM] | Kd [1, 5] [nM] | Kd [2, 6] [nM] |
| --- | --- | --- | --- | --- |
| Cc1nc(Nc2ncc(C(=O)Nc3c(C)cccc3Cl)s2)cc(N2CCN(CCCCCCOCCOCC(=O)Nc3cccc4c3C(=O)N(C3CCC(=O)NC3=O)C4=O)CC2)n1 (stereo not shown) [DAS-6-2-2-CRBN, N-(2-chloro-6-methylphenyl)-2-((6-(4-(6-(2-(2-((2-(2,6-dioxopiperidin-3-yl)-1,3-dioxoisoindolin-4-yl)amino)-2-oxoethoxy)ethoxy)hexyl)piperazin-1-yl)-2-methylpyrimidin-4-yl)amino)thiazole-5-carboxamide] | 0.28 | 0.19 |  |  |
| Cc1ccc(NC(=O)c2ccc(CN3CCN(CCCCCCOCCOCC(=O)N[C@H](C(=O)N4C[C@H](O)C[C@H]4C(=O)NCc4ccc(-c5scnc5C)cc4)C(C)(C)C)CC3)cc2)cc1Nc1nccc(-c2cccnc2)n1 [IMA-6-2-2-VHL, (2S,4R)-1-((S)-3,3-dimethyl-2-(2-(2-((6-(4-(4-((4-methyl-3-((4-(pyridin-3-yl)pyrimidin-2-yl)amino)phenyl)carbamoyl)benzyl)piperazin-1-yl)hexyl)oxy)ethoxy)acetamido)butanoyl)-4-hydroxy-N-(4-(4-methylthiazol-5-yl)benzyl)pyrrolidine-2-carboxamide] | 5.8 | 98 |  |  |
| Cc1ccc(NC(=O)c2ccc(CN3CCN(CCCCCCOCCCCCOCCCCCC(=O)Nc4cccc5c4C(=O)N(C4CCC(=O)NC4=O)C5=O)CC3)cc2)cc1Nc1nccc(-c2cccnc2)n1 (stereo not shown) [IMA-6-5-6-CRBN, 4-((4-(6-((5-((6-((2-(2,6-dioxopiperidin-3-yl)-1,3-dioxoisoindolin-4-yl)amino)-6-oxohexyl)oxy)pentyl)oxy)hexyl)piperazin-1-yl)methyl)-N-(4-methyl-3-((4-(pyridin-3-yl)pyrimidin-2-yl)amino)phenyl)benzamide] | 24 | 360 |  |  |
| Cc1ccc(NC(=O)c2ccc(CN3CCN(CCCCCCOCCOCCOCCCCCC(=O)Nc4cccc5c4C(=O)N(C4CCC(=O)NC4=O)C5=O)CC3)cc2)cc1Nc1nccc(-c2cccnc2)n1 (stereo not shown) [IMA-6-2-2-6-CRBN, 4-((4-(6-(2-(2-((6-((2-(2,6-dioxopiperidin-3-yl)-1,3-dioxoisoindolin-4-yl)amino)-6-oxohexyl)oxy)ethoxy)ethoxy)hexyl)piperazin-1-yl)methyl)-N-(4-methyl-3-((4-(pyridin-3-yl)pyrimidin-2-yl)amino)phenyl)benzamide] |  |  | 6.2 | 110 |
| Cc1ccc(NC(=O)c2ccc(CN3CCN(CCCCCCOCCOCCOCCOCCOCCOCC(=O)N[C@H](C(=O)N4C[C@H](O)C[C@H]4C(=O)NCc4ccc(-c5scnc5C)cc4)C(C)(C)C)CC3)cc2)cc1Nc1nccc(-c2cccnc2)n1 [IMA-6-(2-)5-2-VHL, (2S,4R)-1-((S)-2-(tert-butyl)-27-(4-(4-((4-methyl-3-((4-(pyridin-3-yl)pyrimidin-2-yl)amino)phenyl)carbamoyl)benzyl)piperazin-1-yl)-4-oxo-6,9,12,15,18,21-hexaoxa-3-azaheptacosanoyl)-4-hydroxy-N-(4-(4-methylthiazol-5-yl)benzyl)pyrrolidine-2-carboxamide] | 1.7 | 35 |  |  |
| Cc1nc(Nc2ncc(C(=O)Nc3c(C)cccc3Cl)s2)cc(N2CCN(CCCCCCOCCCCCOCCCCCC(=O)Nc3cccc4c3C(=O)N(C3CCC(=O)NC3=O)C4=O)CC2)n1 (stereo not shown) [DAS-6-5-6-CRBN, N-(2-chloro-6-methylphenyl)-2-((6-(4-(6-((5-((6-((2-(2,6-dioxopiperidin-3-yl)-1,3-dioxoisoindolin-4-yl)amino)-6-oxohexyl)oxy)pentyl)oxy)hexyl)piperazin-1-yl)-2-methylpyrimidin-4-yl)amino)thiazole-5-carboxamide] | 1.3 | 1.4 |  |  |
| Cc1ccc(NC(=O)c2ccc(CN3CCN(CCCCCCOCCOCC(=O)Nc4cccc5c4C(=O)N(C4CCC(=O)NC4=O)C5=O)CC3)cc2)cc1Nc1nccc(-c2cccnc2)n1 (stereo not shown) [IMA-6-2-2-CRBN, 4-((4-(6-(2-(2-((2-(2,6-dioxopiperidin-3-yl)-1,3-dioxoisoindolin-4-yl)amino)-2-oxoethoxy)ethoxy)hexyl)piperazin-1-yl)methyl)-N-(4-methyl-3-((4-(pyridin-3-yl)pyrimidin-2-yl)amino)phenyl)benzamide] | 4.7 | 72 |  |  |
| COc1cc(Nc2c(C#N)cnc3cc(OCCCN4CCN(CCCCCCOCCCCCOCCCCCC(=O)Nc5cccc6c5C(=O)N(C5CCC(=O)NC5=O)C6=O)CC4)c(OC)cc23)c(Cl)cc1Cl (stereo not shown) [BOS-6-5-6-CRBN, 6-((5-((6-(4-(3-((3-cyano-4-((2,4-dichloro-5-methoxyphenyl)amino)-6-methoxyquinolin-7-yl)oxy)propyl)piperazin-1-yl)hexyl)oxy)pentyl)oxy)-N-(2-(2,6-dioxopiperidin-3-yl)-1,3-dioxoisoindolin-4-yl)hexanamide] | 2.8 | 1.1 |  |  |
| Cc1ccc(NC(=O)c2ccc(CN3CCN(CCCCCCOCCOCCOCCOCCOCCOCC(=O)Nc4cccc5c4C(=O)N(C4CCC(=O)NC4=O)C5=O)CC3)cc2)cc1Nc1nccc(-c2cccnc2)n1 (stereo not shown) [IMA-6-(2-)5-2-CRBN, N-(2-(2,6-dioxopiperidin-3-yl)-1,3-dioxoisoindolin-4-yl)-24-(4-(4-((4-methyl-3-((4-(pyridin-3-yl)pyrimidin-2-yl)amino)phenyl)carbamoyl)benzyl)piperazin-1-yl)-3,6,9,12,15,18-hexaoxatetracosanamide] | 3 | 84 |  |  |

Next, values leading:

| Kd [1, 3] [nM] | Kd [2, 4] [nM] | Kd [1, 5] [nM] | Kd [2, 6] [nM] | Structure (SMILES) |
| --- | --- | --- | --- | --- |
|  |  | 1.4 | 0.63 | COc1cc(Nc2c(C#N)cnc3cc(OCCCN4CCN(CCCCCCOCCOCCOCCCCCC(=O)N[C@H](C(=O)N5C[C@H](O)C[C@H]5C(=O)NCc5ccc(-c6scnc6C)cc5)C(C)(C)C)CC4)c(OC)cc23)c(Cl)cc1Cl [BOS-6-2-2-6-VHL, (2S,4R)-1-((S)-2-(tert-butyl)-22-(4-(3-((3-cyano-4-((2,4-dichloro-5-methoxyphenyl)amino)-6-methoxyquinolin-7-yl)oxy)propyl)piperazin-1-yl)-4-oxo-10,13,16-trioxa-3-azadocosanoyl)-4-hydroxy-N-(4-(4-methylthiazol-5-yl)benzyl)pyrrolidine-2-carboxamide] |
| 0.91 | 0.55 |  |  | COc1cc(Nc2c(C#N)cnc3cc(OCCCN4CCN(CCCCCCOCCOCCOCCCCCC(=O)Nc5cccc6c5C(=O)N(C5CCC(=O)NC5=O)C6=O)CC4)c(OC)cc23)c(Cl)cc1Cl (stereo not shown) [BOS-6-2-2-6-CRBN, 6-(2-(2-((6-(4-(3-((3-cyano-4-((2,4-dichloro-5-methoxyphenyl)amino)-6-methoxyquinolin-7-yl)oxy)propyl)piperazin-1-yl)hexyl)oxy)ethoxy)ethoxy)-N-(2-(2,6-dioxopiperidin-3-yl)-1,3-dioxoisoindolin-4-yl)hexanamide] |
| 4.6 | 1.5 |  |  | COc1cc(Nc2c(C#N)cnc3cc(OCCCN4CCN(CCCCCCOCCCCCOCCCCCC(=O)N[C@H](C(=O)N5C[C@H](O)C[C@H]5C(=O)NCc5ccc(-c6scnc6C)cc5)C(C)(C)C)CC4)c(OC)cc23)c(Cl)cc1Cl [BOS-6-5-6-VHL, (2S,4R)-1-((S)-2-(6-((5-((6-(4-(3-((3-cyano-4-((2,4-dichloro-5-methoxyphenyl)amino)-6-methoxyquinolin-7-yl)oxy)propyl)piperazin-1-yl)hexyl)oxy)pentyl)oxy)hexanamido)-3,3-dimethylbutanoyl)-4-hydroxy-N-(4-(4-methylthiazol-5-yl)benzyl)pyrrolidine-2-carboxamide] |
| 19 | 46 |  |  | Cc1ccc(NC(=O)c2ccc(CN3CCN(CCCCCCOCCCCCOCCCCCC(=O)N[C@H](C(=O)N4C[C@H](O)C[C@H]4C(=O)NCc4ccc(-c5scnc5C)cc4)C(C)(C)C)CC3)cc2)cc1Nc1nccc(-c2cccnc2)n1 [IMA-6-5-6-VHL, (2S,4R)-1-((S)-3,3-dimethyl-2-(6-((5-((6-(4-(4-((4-methyl-3-((4-(pyridin-3-yl)pyrimidin-2-yl)amino)phenyl)carbamoyl)benzyl)piperazin-1-yl)hexyl)oxy)pentyl)oxy)hexanamido)butanoyl)-4-hydroxy-N-(4-(4-methylthiazol-5-yl)benzyl)pyrrolidine-2-carboxamide] |
|  |  | 4.3 | 93 | Cc1ccc(NC(=O)c2ccc(CN3CCN(CCCCCCOCCOCCOCCCCCC(=O)N[C@H](C(=O)N4C[C@H](O)C[C@H]4C(=O)NCc4ccc(-c5scnc5C)cc4)C(C)(C)C)CC3)cc2)cc1Nc1nccc(-c2cccnc2)n1 [IMA-6-2-2-6-VHL, (2S,4R)-1-((S)-2-(tert-butyl)-22-(4-(4-((4-methyl-3-((4-(pyridin-3-yl)pyrimidin-2-yl)amino)phenyl)carbamoyl)benzyl)piperazin-1-yl)-4-oxo-10,13,16-trioxa-3-azadocosanoyl)-4-hydroxy-N-(4-(4-methylthiazol-5-yl)benzyl)pyrrolidine-2-carboxamide] |
